Results taken from US8293781B2, “Indole derivatives having cPLA2 inhibiting activity and applications and production methods of the same” (Daiichi Sankyo Company, Limited, priority 2007, dated 2012).
Counter-ions that a name gives are not always drawn.

Target: T1, cPLA2 crudely purified from the cytoplasm fraction of U937 (Homo sapiens, UniProt P47712)
T1 construct: cPLA2 crudely purified from the cytoplasm fraction of U937; endogenous in cells; host or cells: U937 cells (cytoplasm fraction, crude purification)
T1 sequence (P47712 1-749): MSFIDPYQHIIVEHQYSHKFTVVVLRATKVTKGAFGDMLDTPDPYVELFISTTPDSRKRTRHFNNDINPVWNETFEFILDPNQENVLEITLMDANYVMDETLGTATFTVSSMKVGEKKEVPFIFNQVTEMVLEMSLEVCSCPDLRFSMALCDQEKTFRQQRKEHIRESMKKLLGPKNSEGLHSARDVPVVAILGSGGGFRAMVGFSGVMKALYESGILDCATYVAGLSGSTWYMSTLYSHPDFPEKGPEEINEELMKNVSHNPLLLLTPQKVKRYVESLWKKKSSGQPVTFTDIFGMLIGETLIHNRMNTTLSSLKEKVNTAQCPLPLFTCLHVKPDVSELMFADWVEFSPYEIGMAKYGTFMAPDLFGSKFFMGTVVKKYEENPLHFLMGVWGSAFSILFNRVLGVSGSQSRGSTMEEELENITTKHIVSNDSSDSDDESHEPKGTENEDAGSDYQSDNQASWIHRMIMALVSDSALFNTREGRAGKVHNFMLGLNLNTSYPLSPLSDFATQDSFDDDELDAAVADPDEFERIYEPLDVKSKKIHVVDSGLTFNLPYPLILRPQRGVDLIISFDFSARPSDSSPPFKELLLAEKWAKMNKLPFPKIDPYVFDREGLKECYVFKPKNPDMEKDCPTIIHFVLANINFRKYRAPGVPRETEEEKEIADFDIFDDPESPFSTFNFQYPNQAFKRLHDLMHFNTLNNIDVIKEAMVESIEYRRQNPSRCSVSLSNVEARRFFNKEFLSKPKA
Experiment: Measurement of cPLA2 inhibitory activity (release of [14C]-arachidonic acid from phosphatidyl choline liposome)
Format: biochemical
Details: cPLA2 from U937 cytoplasm fraction, [14C]arachidonyl-phosphatidyl choline liposome, 37° C., 60 minutes; read-out: cPLA2 inhibitory activity, 50% inhibiting concentration IC50
Method in brief: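 The read-out is radioactivity from extracted [14C]-arachidonic acid, freed over 60 min at 37° C from liposomes of 14C-arachidonyl phosphatidylcholine (10 μM PC in the added solution). Buffer was 50 mM HEPES pH 7.5 with Ca2+, DTT, NaCl and BSA. IC50 was derived from inhibition relative to enzyme control minus no-enzyme control.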

COCC(=O)Nc1ccc(-n2cc(CCc3ccccc3)c3cc(CCC(=O)O)ccc32)cc1 [Example 197, 3-[1-{4-[(methoxyacetyl)amino]phenyl}-3-(2-phenylethyl)-1H-indol-5-yl]propanoic acid]
IC50: 157 nM

O=C(O)CCc1ccc2c(c1)c(CCc1ccccc1)cn2-c1ccc(OCc2ccccc2)nc1 [Example 199, 3-{1-[6-(benzyloxy)pyridin-3-yl]-3-(2-phenylethyl)-1H-indol-5-yl}propanoic acid]
IC50: 986 nM

COCCc1ccc(-n2cc(CCc3ccccc3)c3cc(CCC(=O)O)ccc32)cc1 [Example 201, 3-{1-[4-(2-methoxyethyl)phenyl]-3-(2-phenylethyl)-1H-indol-5-yl}propanoic acid]
IC50: 219 nM

COCCOc1ccc(-n2cc(CCc3ccccc3)c3cc(CCC(=O)O)ccc32)cc1 [Example 203, 3-{1-[4-(2-methoxyethoxy)phenyl]-3-(2-phenylethyl)-1H-indol-5-yl}propanoic acid]
IC50: 10 nM

O=C(O)CCc1ccc2c(c1)c(CCc1ccccc1)cn2-c1ccc(C(F)(F)F)cn1 [Example 205, 3-{3-(2-phenylethyl)-1-[5-(trifluoromethyl)pyridin-2-yl]-1H-indol-5-yl}propanoic acid]
IC50: 133 nM

O=C(O)CCc1ccc2c(c1)c(CCc1ccccc1)cn2-c1ccc(C(F)(F)F)cc1 [Example 207, 3-{3-(2-phenylethyl)-1-[4-(trifluoromethyl)phenyl]-1H-indol-5-yl}propanoic acid]
IC50: 64 nM

O=C(O)CCc1ccc2c(c1)c(CCc1ccccc1)cn2-c1ccc(CCO)cc1 [Example 209, 3-{1-[4-(2-hydroxyethyl)phenyl]-3-(2-phenylethyl)-1H-indol-5-yl}propanoic acid]
IC50: 244 nM

COc1ccc(-n2cc(CCc3ccccc3)c3cc(CCC(=O)O)ccc32)cc1OC [Example 211, 3-[1-(3,4-dimethoxyphenyl)-3-(2-phenylethyl)-1H-indol-5-yl]propanoic acid]
IC50: 790 nM

O=C(O)CCc1ccc2c(c1)c(CCc1ccccc1)cn2-c1ccc(OC2CCCCO2)cc1 (centres unmarked) [Example 213, 3-{3-(2-phenylethyl)-1-[4-(tetrahydro-2H-pyran-2-yloxy)phenyl]-1H-indol-5-yl}propanoic acid]
IC50: 15 nM

O=C(O)CCc1ccc2c(c1)c(CCc1ccccc1)cn2-c1ccc(OC2CCCCO2)cc1 (centres unmarked) [Example 214, 3-{3-(2-phenylethyl)-1-[4-(tetrahydro-2H-pyran-2-yloxy)phenyl]-1H-indol-5-yl}propanoic acid 2-amino-2-(hydroxymethyl)propane-1,3-diol salt (1:1)]
IC50: 5 nM

COCc1ccc(-n2cc(CCc3ccccc3)c3cc(CCC(=O)O)ccc32)cc1 [Example 216, 3-{1-[4-(methoxymethyl)phenyl]-3-(2-phenylethyl)-1H-indol-5-yl}propanoic acid]
IC50: 86 nM

O=C(O)CCc1ccc2c(c1)c(CCc1ccccc1)cn2-c1ccc(CO)cc1 [Example 219, 3-{1-[4-(hydroxymethyl)phenyl]-3-(2-phenylethyl)-1H-indol-5-yl}propanoic acid]
IC50: 147 nM

O=C(O)CCc1ccc2c(c1)c(CCc1ccccc1)cn2-c1ccc(CO)cc1 [Example 220, 3-{1-[4-(hydroxymethyl)phenyl]-3-(2-phenylethyl)-1H-indol-5-yl}propanoic acid 2-amino-2-(hydroxymethyl)propane-1,3-diol salt (1:1)]
IC50: 146 nM

O=C(O)CCc1ccc2c(c1)c(CCc1ccccc1)cn2-c1ccc(OCCN2CCCC2)cc1 [Example 222, 3-{3-(2-phenylethyl)-1-[4-(2-pyrrolidin-1-ylethoxy)phenyl]-1H-indol-5-yl}propanoic acid]
IC50: 49 nM

O=C(O)CCc1ccc2c(c1)c(CCc1ccccc1)cn2-c1ccc(OCCN2CCCC2)cc1 [Example 223, 3-{3-(2-phenylethyl)-1-[4-(2-pyrrolidin-1-ylethoxy)phenyl]-1H-indol-5-yl}propanoic acid hydrochloride]
IC50: 57 nM

O=C(O)CCc1ccc2c(c1)c(CCc1ccccc1)cn2-c1ccc(OC2CCOCC2)cc1 [Example 225, 3-{3-(2-phenylethyl)-1-[4-(tetrahydro-2H-pyran-4-yloxy)phenyl]-1H-indol-5-yl}propanoic acid]
IC50: 8 nM

O=C(O)CCc1ccc2c(c1)c(CCc1ccccc1)cn2-c1ccc(OCCO)cc1 [Example 228, 3-{1-[4-(2-hydroxyethoxy)phenyl]-3-(2-phenylethyl)-1H-indol-5-yl}propanoic acid]
IC50: 4 nM

O=C(O)CCc1ccc2c(c1)c(CCc1ccccc1)cn2-c1ccc2c(c1)OCCO2 [Example 233, 3-[1-(2,3-dihydro-1,4-benzodioxin-6-yl)-3-(2-phenylethyl)-1H-indol-5-yl]propanoic acid 2-amino-2-(hydroxymethyl)propane-1,3-diol salt (1:1)]
IC50: 82 nM

O=C(O)CCc1ccc2c(c1)c(CCc1ccccc1)cn2-c1ccc(Cc2ccccn2)cc1 [Example 235, 3-{3-(2-phenylethyl)-1-[4-(pyridin-2-ylmethyl)phenyl]-1H-indol-5-yl}propanoic acid hydrochloride]
IC50: 122 nM

O=C(O)CCc1ccc2c(c1)c(CCc1ccccc1)cn2-c1ccc(Cc2ccncc2)cc1 [Example 237, 3-{3-(2-phenylethyl)-1-[4-(pyridin-4-ylmethyl)phenyl]-1H-indol-5-yl}propanoic acid hydrochloride]
IC50: 193 nM

O=C(O)/C=C/c1ccc2c(c1)c(CCc1ccccc1)cn2-c1ccc(O)cc1 [Example 239, (2E)-3-[1-(4-hydroxyphenyl)-3-(2-phenylethyl)-1H-indol-5-yl]-2-propenoic acid]
IC50: 54 nM

O=C(O)CCc1ccc2c(c1)c(CCc1ccccc1)cn2-c1ccc(OCC2CCCCO2)cc1 (centres unmarked) [Example 243, 3-{3-(2-phenylethyl)-1-[4-(tetrahydro-2H-pyran-2-ylmethoxy)phenyl]-1H-indol-5-yl}propanoic acid 2-amino-2-(hydroxymethyl)propane-1,3-diol salt (1:1)]
IC50: 4 nM

O=C(O)CCc1ccc2c(c1)c(CCc1ccccc1)cn2-c1ccc(OCc2ccccn2)cc1 [Example 245, 3-{3-(2-phenylethyl)-1-[4-(pyridin-2-ylmethoxy)phenyl]-1H-indol-5-yl}propanoic acid]
IC50: 10 nM

O=C(O)CCc1ccc2c(c1)c(CCc1ccccc1)cn2-c1ccc(OCc2ccccn2)cc1 [Example 246, 3-{3-(2-phenylethyl)-1-[4-(pyridin-2-ylmethoxy)phenyl]-1H-indol-5-yl}propanoic acid hydrochloride]
IC50: 7 nM

O=C(O)CCc1ccc2c(c1)c(CCc1ccccc1)cn2-c1ccc(OCc2cccnc2)cc1 [Example 248, 3-{3-(2-phenylethyl)-1-[4-(pyridin-3-ylmethoxy)phenyl]-1H-indol-5-yl}propanoic acid]
IC50: 7 nM

O=C(O)CCc1ccc2c(c1)c(CCc1ccccc1)cn2-c1ccc(OCc2cccnc2)cc1 [Example 249, 3-{3-(2-phenylethyl)-1-[4-(pyridin-3-ylmethoxy)phenyl]-1H-indol-5-yl}propanoic acid hydrochloride]
IC50: 26 nM

O=C(O)CCc1ccc2c(c1)c(CCc1ccccc1)cn2-c1ccc(OCCc2ccccn2)cc1 [Example 251, 3-{3-(2-phenylethyl)-1-[4-(2-pyridin-2-ylethoxy)phenyl]-1H-indol-5-yl}propanoic acid]
IC50: 9 nM

O=C(O)CCc1ccc2c(c1)c(CCc1ccccc1)cn2-c1ccc(OCCc2cccnc2)cc1 [Example 253, 3-{3-(2-phenylethyl)-1-[4-(2-pyridin-3-ylethoxy)phenyl]-1H-indol-5-yl}propanoic acid]
IC50: 14 nM

O=C(O)CCc1ccc2c(c1)c(CCc1ccccc1)cn2-c1ccc(OCCc2ccncc2)cc1 [Example 255, 3-{3-(2-phenylethyl)-1-[4-(2-pyridin-4-ylethoxy)phenyl]-1H-indol-5-yl}propanoic acid]
IC50: 12 nM

O=C(O)CCc1ccc2c(c1)c(CCc1ccccc1)cn2-c1ccc(OCCCc2cccnc2)cc1 [Example 257, 3-{3-(2-phenylethyl)-1-[4-(3-pyridin-3-ylpropoxy)phenyl]-1H-indol-5-yl}propanoic acid]
IC50: 7 nM

O=C(O)CCc1ccc2c(c1)c(CCc1ccccc1)cn2-c1ccc(OCCCc2cccnc2)cc1 [Example 258, 3-{3-(2-phenylethyl)-1-[4-(3-pyridin-3-ylpropoxy)phenyl]-1H-indol-5-yl}propanoic acid hydrochloride]
IC50: 2 nM

O=C(O)CCc1ccc2c(c1)c(CCc1ccccc1)cn2-c1ccc(OCCCc2ccncc2)cc1 [Example 260, 3-{3-(2-phenylethyl)-1-[4-(3-pyridin-4-ylpropoxy)phenyl]-1H-indol-5-yl}propanoic acid]
IC50: 8 nM
